For 9 molecules, IC50 results are on record in patent US10308639B2, “Phosphatidylinositol 3-kinase inhibitors” (Gilead Sciences, Inc., priority 2014, dated 2019).

Format in all cases: biochemical
Experiment [1] deals with T1, PI3Kγ (Homo sapiens, UniProt P48736).
T1 construct: made in house
The experiment can be described thus: TR-FRET enzymatic activity assay, PI3Kγ. Particulars: Table 2a; same assay; read-out: PI3Kγ IC50. The method, boiled down: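 Enzymatic activity against the PI3K isoforms was measured using a time-resolved fluorescence resonance energy transfer (TR-FRET) assay.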
For orientation: Time-resolved FRET reads energy transfer from a long-lived donor to a nearby acceptor.

Experiment [2] concerns the target T2, PI3Kβ (Homo sapiens, UniProt P42338).
T2 construct: made in house
As to the kind of experiment: TR-FRET enzymatic activity assay, PI3Kβ. Particulars: Table 2a; same assay.

For experiment [3], the target named is T3, PI3Kδ (Homo sapiens, UniProt O00329).
T3 construct: made in house
T3 sequence (O00329 whole entry): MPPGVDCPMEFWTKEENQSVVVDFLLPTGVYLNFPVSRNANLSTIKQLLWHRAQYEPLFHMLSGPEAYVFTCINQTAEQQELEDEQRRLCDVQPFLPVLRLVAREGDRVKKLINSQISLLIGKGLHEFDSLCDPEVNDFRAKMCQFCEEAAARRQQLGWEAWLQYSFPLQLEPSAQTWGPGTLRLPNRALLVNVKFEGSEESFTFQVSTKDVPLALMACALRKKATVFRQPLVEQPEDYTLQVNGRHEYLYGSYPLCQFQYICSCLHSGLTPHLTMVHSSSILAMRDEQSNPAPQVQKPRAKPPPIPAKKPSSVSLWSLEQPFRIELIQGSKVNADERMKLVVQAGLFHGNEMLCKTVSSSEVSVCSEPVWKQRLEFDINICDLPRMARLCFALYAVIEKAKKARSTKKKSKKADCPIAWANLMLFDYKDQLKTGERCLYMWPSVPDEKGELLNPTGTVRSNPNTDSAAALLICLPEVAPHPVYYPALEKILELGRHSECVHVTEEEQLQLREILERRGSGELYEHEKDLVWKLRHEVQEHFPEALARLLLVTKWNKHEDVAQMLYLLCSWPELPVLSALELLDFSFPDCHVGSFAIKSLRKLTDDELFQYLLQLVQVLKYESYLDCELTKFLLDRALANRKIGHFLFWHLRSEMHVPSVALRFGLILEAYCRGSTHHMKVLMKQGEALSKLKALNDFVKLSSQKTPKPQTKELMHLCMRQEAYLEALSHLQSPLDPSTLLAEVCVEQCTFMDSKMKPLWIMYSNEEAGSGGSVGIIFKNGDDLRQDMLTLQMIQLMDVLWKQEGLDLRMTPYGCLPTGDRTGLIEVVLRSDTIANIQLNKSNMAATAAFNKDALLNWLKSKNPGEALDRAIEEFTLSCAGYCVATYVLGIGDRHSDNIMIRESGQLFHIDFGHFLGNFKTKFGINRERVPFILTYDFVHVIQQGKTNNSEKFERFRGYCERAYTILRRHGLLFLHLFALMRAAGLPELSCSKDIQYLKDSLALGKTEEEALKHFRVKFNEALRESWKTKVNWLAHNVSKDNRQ
T3 sequence (P27986 whole entry partner): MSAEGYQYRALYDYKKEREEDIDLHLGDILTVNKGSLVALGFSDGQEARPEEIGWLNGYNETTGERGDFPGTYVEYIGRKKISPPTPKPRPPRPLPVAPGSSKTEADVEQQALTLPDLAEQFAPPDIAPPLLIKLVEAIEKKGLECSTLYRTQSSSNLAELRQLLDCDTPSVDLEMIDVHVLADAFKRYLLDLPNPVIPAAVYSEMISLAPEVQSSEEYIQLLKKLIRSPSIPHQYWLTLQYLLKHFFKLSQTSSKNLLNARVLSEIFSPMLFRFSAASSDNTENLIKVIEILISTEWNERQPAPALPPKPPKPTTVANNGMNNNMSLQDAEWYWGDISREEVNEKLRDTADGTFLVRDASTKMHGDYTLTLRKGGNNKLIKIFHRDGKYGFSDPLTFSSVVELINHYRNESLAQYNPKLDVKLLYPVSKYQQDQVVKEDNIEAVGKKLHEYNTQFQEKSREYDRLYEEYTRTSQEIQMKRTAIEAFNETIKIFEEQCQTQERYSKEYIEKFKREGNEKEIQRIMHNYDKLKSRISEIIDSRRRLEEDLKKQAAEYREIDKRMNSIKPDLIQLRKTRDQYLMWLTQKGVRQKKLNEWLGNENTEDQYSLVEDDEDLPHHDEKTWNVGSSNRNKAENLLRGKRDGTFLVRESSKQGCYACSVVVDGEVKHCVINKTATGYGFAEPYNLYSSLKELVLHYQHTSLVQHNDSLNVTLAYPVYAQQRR
The experiment can be described thus: TR-FRET enzymatic activity assay, PI3Kδ. As to conditions: Table 2a; same assay.

Each structure is given as a SMILES string.

T1 sequence (P48736 whole entry): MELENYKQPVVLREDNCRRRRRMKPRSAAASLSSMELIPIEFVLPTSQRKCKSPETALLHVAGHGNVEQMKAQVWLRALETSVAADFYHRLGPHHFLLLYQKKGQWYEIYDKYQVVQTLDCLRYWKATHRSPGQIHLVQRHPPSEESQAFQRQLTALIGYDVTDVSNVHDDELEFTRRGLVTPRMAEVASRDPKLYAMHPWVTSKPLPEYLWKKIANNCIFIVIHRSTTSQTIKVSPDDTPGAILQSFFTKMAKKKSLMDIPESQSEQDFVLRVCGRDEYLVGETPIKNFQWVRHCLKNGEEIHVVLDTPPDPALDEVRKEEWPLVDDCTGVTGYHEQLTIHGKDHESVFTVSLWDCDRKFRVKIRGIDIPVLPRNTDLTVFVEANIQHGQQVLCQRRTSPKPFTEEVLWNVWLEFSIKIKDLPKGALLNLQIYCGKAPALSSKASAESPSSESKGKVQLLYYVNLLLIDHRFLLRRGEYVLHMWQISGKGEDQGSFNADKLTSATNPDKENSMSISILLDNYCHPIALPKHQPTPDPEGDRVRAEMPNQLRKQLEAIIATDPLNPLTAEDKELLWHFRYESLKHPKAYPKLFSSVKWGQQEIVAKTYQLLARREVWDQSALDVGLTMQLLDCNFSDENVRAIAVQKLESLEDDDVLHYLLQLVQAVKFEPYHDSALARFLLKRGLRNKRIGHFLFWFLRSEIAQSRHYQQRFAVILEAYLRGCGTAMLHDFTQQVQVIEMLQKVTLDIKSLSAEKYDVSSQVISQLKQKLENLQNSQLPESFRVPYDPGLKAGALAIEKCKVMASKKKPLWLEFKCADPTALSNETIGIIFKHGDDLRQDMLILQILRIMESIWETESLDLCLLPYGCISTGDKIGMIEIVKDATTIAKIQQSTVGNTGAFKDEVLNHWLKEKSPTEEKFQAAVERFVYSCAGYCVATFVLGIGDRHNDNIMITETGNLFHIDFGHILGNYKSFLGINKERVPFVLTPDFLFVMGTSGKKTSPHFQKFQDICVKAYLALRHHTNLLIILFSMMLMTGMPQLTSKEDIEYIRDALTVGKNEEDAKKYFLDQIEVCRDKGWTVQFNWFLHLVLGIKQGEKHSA
T2 sequence (P42338 whole entry): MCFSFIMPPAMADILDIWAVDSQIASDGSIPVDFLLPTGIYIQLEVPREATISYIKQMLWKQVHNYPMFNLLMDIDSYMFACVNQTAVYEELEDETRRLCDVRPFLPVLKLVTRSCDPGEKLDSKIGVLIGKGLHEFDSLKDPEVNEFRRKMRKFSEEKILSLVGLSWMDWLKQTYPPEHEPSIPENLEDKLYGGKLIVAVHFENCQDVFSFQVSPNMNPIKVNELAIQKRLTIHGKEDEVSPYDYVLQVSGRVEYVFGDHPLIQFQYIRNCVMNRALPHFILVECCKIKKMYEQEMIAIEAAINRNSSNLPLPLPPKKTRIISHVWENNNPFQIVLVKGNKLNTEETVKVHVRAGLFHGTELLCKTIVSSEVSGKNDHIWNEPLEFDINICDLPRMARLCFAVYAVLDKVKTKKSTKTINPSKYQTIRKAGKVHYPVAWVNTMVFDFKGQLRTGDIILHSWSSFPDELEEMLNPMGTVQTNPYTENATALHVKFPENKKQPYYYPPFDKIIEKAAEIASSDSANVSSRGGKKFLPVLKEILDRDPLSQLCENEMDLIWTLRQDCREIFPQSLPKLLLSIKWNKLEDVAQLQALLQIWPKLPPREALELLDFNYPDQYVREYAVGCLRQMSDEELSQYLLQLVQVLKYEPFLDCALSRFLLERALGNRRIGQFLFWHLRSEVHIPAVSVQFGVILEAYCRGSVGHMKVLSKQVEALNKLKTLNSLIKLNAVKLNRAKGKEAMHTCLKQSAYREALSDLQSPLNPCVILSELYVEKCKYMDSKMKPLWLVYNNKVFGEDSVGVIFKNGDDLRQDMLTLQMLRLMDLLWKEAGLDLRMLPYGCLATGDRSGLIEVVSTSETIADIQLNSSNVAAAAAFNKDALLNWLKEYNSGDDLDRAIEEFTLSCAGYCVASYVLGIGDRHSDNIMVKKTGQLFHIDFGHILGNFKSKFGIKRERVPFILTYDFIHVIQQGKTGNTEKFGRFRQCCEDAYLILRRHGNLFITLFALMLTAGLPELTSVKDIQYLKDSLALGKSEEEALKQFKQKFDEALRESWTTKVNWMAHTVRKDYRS
T2 sequence (P27986 whole entry partner): as the sequence (P27986 whole entry partner) above

The IC50 is the concentration needed to halve the response being measured. As to `N#Cc1c(N[C@H](c2nc3c(C(F)F)cc(F)cc3c(=O)n2-c2cc[nH]n2)C2CC2)nc(N)nc1C(F)F` [Compound 145, (S)-2-amino-4-((cyclopropyl(8-(difluoromethyl)-6-fluoro-4-oxo-3-(1H-pyrazol-3-yl)-3,4-dihydroquinazolin-2-yl)methyl)amino)-6-(difluoromethyl)pyrimidine-5-carbonitrile], the IC50 in experiment [1] is more than 10000 nM; in experiment [2] it was 28 nM; in experiment [3], 46 nM.

As for `C[C@H](Nc1nc(N)nc(N)c1Cl)c1nc2c(Cl)ccc(F)c2c(=O)n1-c1cc[nH]n1` [Compound 147, (S)-8-chloro-2-(1-((2,6-diamino-5-chloropyrimidin-4-yl)amino)ethyl)-5-fluoro-3-(1H-pyrazol-3-yl)quinazolin-4(3H)-one], the IC50 was more than 10000 nM in experiment [1], 14 nM in experiment [2] and 15 nM in experiment [3].

Turning to `Nc1nc(N)c(Cl)c(N[C@H](c2nc3c(Cl)ccc(F)c3c(=O)n2-c2cc[nH]n2)C2CC2)n1` [Compound 148, (S)-8-chloro-2-(cyclopropyl((2,6-diamino-5-chloropyrimidin-4-yl)amino)methyl)-5-fluoro-3-(1H-pyrazol-3-yl)quinazolin-4(3H)-one], the IC50 is more than 10000 nM in experiment [1], 52 nM in experiment [2] and 44 nM in experiment [3].

Regarding `Nc1nc(N)c(Cl)c(N[C@@H](CO)c2nc3c(Cl)cc(F)cc3c(=O)n2-c2cc[nH]n2)n1` [Compound 149, (R)-8-chloro-2-(1-((2,6-diamino-5-chloropyrimidin-4-yl)amino)-2-hydroxyethyl)-6-fluoro-3-(1H-pyrazol-3-yl)quinazolin-4(3H)-one], the IC50 in experiment [1] is more than 10000 nM; in experiment [2] it was 93 nM; in experiment [3], 210 nM.

As for `C[C@H](Nc1ncnc2scc(Br)c12)c1nc2cccc(Cl)c2c(=O)n1-c1cc[nH]n1` [Compound 150, (S)-2-(1-((5-bromothieno[2,3-d]pyrimidin-4-yl)amino)ethyl)-5-chloro-3-(1H-pyrazol-3-yl)quinazolin-4(3H)-one], the IC50 in experiment [1] stood at 3000 nM; in experiment [2], 6 nM; in experiment [3] it was 2 nM.

With `C[C@H](Nc1nc(N)nc(N)c1Cl)c1nc2c(F)ccc(F)c2c(=O)n1-c1cc[nH]n1` [Compound 152, (S)-2-(1-((2,6-diamino-5-chloropyrimidin-4-yl)amino)ethyl)-5,8-difluoro-3-(1H-pyrazol-3-yl)quinazolin-4(3H)-one], the IC50 is more than 10000 nM in experiment [1], 20 nM in experiment [2] and 13 nM in experiment [3].

As to `C[C@H](Nc1nc(N)nc(N)c1Cl)c1nc2cccc(Cl)c2c(=O)n1-c1cc(Cl)[nH]n1` [Compound 154, (S)-5-chloro-3-(5-chloro-1H-pyrazol-3-yl)-2-(1-((2,6-diamino-5-chloropyrimidin-4-yl)amino)ethyl)quinazolin-4(3H)-one], the IC50 turned out to be 3300 nM in experiment [1], 100 nM in experiment [2] and 13 nM in experiment [3].

Turning to `C[C@H](Nc1nc(N)nc(N)c1Cl)c1nc2cccc(Cl)c2c(=O)n1-c1cc(F)[nH]n1` [Compound 155, (S)-5-chloro-2-(1-((2,6-diamino-5-chloropyrimidin-4-yl)amino)ethyl)-3-(5-fluoro-1H-pyrazol-3-yl)quinazolin-4(3H)-one], the IC50 in experiment [1] worked out at 500 nM; in experiment [2], 43 nM; in experiment [3], 10 nM.

Take `C[C@H](Nc1nc(N)nc(N)c1Cl)c1nc2c(Cl)cccc2c(=O)n1-c1cc[nH]n1` [Compound 156, (S)-8-chloro-2-(1-((2,6-diamino-5-chloropyrimidin-4-yl)amino)ethyl)-3-(1H-pyrazol-3-yl)quinazolin-4(3H)-one]: the IC50 in experiment [1] is more than 10000 nM; in experiment [2] it was 26 nM; in experiment [3] it was 9 nM.
